From patent US9492471B2, “Methods of treating a disease or disorder associated with Bruton'S Tyrosine Kinase” (Celgene Avilomics Research, Inc., priority 2013, dated 2016)
Where two headings read alike, the source gives them in different places.

Assays:
Test in all cases: HotSpot kinase profiling
Type in all cases: biochemical
RSK3 = target: T1, RSK3 (Homo sapiens, UniProt Q15349)
T1 construct: purchased Reaction Biology Corp
How it was run: (§1)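 Percent inhibition, averaged when run more than once and referenced to a DMSO negative control, came from a radioactive filter-binding readout on P81 paper. Reactions of kinase with freshly made substrate and cofactors ran for 2 h at room temperature.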

EPHB4 = target: T2, EPHB4 (Homo sapiens, UniProt P54760)
T2 construct: purchased Reaction Biology Corp
T2 sequence (P54760 16-987): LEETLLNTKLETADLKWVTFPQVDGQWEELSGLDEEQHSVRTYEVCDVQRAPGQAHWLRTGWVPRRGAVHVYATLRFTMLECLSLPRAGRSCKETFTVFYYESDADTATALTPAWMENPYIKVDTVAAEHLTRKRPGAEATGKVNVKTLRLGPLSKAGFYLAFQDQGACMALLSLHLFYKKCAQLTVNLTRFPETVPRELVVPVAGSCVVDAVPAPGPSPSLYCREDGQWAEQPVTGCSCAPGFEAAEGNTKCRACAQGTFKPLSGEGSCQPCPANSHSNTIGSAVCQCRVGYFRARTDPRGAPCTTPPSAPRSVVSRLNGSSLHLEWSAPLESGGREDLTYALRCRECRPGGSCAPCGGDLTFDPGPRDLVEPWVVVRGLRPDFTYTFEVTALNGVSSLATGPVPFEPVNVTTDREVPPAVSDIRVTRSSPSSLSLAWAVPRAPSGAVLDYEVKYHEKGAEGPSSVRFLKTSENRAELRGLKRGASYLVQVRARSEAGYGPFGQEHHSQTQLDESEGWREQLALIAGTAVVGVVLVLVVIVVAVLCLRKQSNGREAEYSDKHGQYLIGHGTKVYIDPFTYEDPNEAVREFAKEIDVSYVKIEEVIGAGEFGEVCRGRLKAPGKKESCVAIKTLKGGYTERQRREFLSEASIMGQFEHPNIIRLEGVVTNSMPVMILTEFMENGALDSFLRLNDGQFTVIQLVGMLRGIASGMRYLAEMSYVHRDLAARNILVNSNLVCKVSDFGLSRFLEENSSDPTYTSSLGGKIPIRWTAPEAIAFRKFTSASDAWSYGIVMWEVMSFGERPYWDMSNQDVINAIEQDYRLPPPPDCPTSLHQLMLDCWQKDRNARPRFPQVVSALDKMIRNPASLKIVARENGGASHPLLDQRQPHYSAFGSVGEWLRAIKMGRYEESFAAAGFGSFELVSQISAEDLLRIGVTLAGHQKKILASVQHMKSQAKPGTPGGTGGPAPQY
How it was run: as §1

JNK1 = target: T3, JNK1 (Homo sapiens, UniProt P45983)
T3 construct: purchased Reaction Biology Corp
How it was run: as §1

CAMK4 = target: T4, CAMK4 (Homo sapiens, UniProt Q16566)
T4 construct: purchased Reaction Biology Corp
T4 sequence (Q16566 1-473): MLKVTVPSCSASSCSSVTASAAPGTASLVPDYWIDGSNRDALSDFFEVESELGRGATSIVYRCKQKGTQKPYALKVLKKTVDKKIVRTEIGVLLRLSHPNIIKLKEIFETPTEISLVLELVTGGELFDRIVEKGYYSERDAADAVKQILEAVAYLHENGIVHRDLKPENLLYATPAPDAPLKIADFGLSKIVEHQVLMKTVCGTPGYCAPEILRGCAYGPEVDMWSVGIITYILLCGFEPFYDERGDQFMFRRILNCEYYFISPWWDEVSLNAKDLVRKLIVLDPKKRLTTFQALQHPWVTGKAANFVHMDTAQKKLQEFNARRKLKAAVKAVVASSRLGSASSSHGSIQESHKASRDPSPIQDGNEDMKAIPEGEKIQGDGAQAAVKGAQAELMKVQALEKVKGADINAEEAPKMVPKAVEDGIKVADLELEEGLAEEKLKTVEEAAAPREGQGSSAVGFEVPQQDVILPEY
How it was run: as §1

[1] = read-out: % Enzyme Activity (relative to DMSO controls) Run 1
[2] = read-out: % Enzyme Activity (relative to DMSO controls) Run 2

T3 sequence (P45983 whole entry): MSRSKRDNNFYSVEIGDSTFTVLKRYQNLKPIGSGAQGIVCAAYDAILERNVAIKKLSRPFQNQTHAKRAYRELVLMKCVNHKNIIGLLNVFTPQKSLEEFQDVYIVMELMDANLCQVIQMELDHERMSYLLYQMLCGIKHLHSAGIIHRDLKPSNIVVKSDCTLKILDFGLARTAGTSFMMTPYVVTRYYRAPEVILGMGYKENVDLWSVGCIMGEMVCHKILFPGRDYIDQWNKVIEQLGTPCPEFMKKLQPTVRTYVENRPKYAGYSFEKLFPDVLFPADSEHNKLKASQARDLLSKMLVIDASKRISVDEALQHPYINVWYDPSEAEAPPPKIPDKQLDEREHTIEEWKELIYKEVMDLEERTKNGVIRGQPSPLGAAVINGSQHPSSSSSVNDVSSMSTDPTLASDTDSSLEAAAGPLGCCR
T1 sequence (Q15349 whole entry): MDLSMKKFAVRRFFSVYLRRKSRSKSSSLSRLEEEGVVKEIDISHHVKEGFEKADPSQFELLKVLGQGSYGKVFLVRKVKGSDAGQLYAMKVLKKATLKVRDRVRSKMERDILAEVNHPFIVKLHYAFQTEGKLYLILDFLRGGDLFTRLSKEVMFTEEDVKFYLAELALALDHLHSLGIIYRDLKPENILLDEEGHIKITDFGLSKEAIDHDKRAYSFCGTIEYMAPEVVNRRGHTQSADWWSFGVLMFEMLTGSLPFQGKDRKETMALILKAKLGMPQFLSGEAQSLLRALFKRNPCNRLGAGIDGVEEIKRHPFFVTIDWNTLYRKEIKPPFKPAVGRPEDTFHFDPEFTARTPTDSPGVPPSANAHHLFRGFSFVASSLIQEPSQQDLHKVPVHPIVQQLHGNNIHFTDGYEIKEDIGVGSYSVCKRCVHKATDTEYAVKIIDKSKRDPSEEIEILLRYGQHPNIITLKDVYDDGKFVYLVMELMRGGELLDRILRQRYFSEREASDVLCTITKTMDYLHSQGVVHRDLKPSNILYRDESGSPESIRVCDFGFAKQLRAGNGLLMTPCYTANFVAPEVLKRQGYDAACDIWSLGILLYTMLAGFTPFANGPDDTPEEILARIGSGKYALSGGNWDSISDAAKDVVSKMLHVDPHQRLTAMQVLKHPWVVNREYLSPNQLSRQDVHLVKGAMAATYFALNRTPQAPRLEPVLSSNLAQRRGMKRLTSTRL

C=CC(=O)Nc1cccc(Nc2nc(Nc3ccc(OCCOC)c(F)c3)ncc2F)c1 [Compound 2]
inhibition at 3 µM (RSK3): 14.5% | remaining activity at 3 µM (RSK3; [1]): 85.8% | remaining activity at 3 µM (RSK3; [2]): 85.2% | inhibition at 3 µM (EPHB4): 18.6% | remaining activity at 3 µM (EPHB4; [1]): 81.2% | remaining activity at 3 µM (EPHB4; [2]): 81.5% | inhibition at 3 µM (JNK1): 12.1% | remaining activity at 3 µM (JNK1; [1]): 88.1% | remaining activity at 3 µM (JNK1; [2]): 87.7% | inhibition at 3 µM (CAMK4): -2.26% | remaining activity at 3 µM (CAMK4; [1]): 102% | remaining activity at 3 µM (CAMK4; [2]): 102%
